Results as given in US4720543A, “1a-7-substituted derivatives of mitomycin and uses thereof” (priority 1985, dated 1988).
Several values for one entry are separate records, joined by “and”; a condition that tells them apart may be missing. Equal values may be shown once. Entries after “also recorded” stand apart in the source; their conditions may differ.

Key:
Ehrlich ascites = test: murine Ehrlich ascites antitumor activity; format: in vivo
Procedure: The antitumor activity of M-TAG for the murine Ehrlich ascities tumor was also determined. Ehrlich ascites was maintained i.p. in female BALB/C mice. For antitumor studies, 1×10^7 Ehrlich ascites cells (in 0.10 ml) were implanted i.p. in male BD2F1 mice. Drug was administered i.p. (single LD10 dose) one day after tumor implantation.

P388 leukemia = test: murine P388 leukemia antitumor activity; format: in vivo
Procedure: The murine P388 leukemia system, maintained intraperitoneally in female DBA/2 mice, was used to evaluate antitumor activity.
The P388 antileukemic activity of the test compound (M-TAG) was assessed by mean survival days, percentage increased life span or %ILS, and number of survivors after 45 days. The %ILS was calculated as follows:
%ILS=(T-C)/C×100 where T is the mean survival days of the treated mice and C is the mean survival days of the untreated mice

[1] = toxic single doses in normal CD2F1 mice; conditions: for Deaths due to drug toxicity: up to 45 days
Procedure: Drug was administered intraperitoneally (i.p.) in a volume of 0.1 ml per 10 grams body weight.

[2] = human bone marrow CFU-C assay; conditions: human, bone marrow cells
Procedure: (§2) The human bone marrow CFU-C assay measures human bone marrow cells committed to granulocyte-macrophage differentiation. This in vitro assay serves as a model for predicting the relative toxicity of an experimental drug on the granulocytic series of the bone marrow. […] Both drugs were dissolved in 0.5% DMSO, and nucleated human bone marrow cells were exposed in vitro (for 90 minutes at 37° C.) to varying concentrations of each drug. The cells were then plated in triplicate in 3% agar for the CFU-C assay, using GCT, (Giant Cell Tumor) extract (Gibco, Grand Island, N.Y.) as colony-stimulating factor.

human bone marrow cells = test: human bone marrow CFU-C assay
Procedure: as §2

[3] = test system: peripheral leukocyte (WBC); test: effects on peripheral leukocyte (WBC) count; format: in vivo, mice; conditions: LD10-range dose i.p., days 3, 4, 5, 6 and 10
Procedure: Comparative studies were performed with M-TAG and mitomycin C. Drug was dissolved in absolute ethanol, and then adjusted to a final concentration of 8% ethanol-92% sterile water. Blood samples obtained were diluted in 9.98 ml of Isoton (a neutral isotonic buffer solution) and counted in a Coulter counter after lysis with Zapoglobin (an enzyme solution which lyses red blood cells but not white blood cells). WBC counts are expressed as a percentage of values from control mice receiving drug vehicle only.

B16 melanoma = test: murine B16 melanoma antitumor activity
Description: Activity against the murine B16 melanoma is currently being determined.

Klebsiella Pneumonia = test: antibiotic activity, bacterial growth inhibition in culture; format: cell-based
Procedure: (§1) Bacteria were grown in a standard growth culture at pH 7.2. After the cultures were incubated at 37° C. overnight and diluted into fresh medium, controls and the test antibiotics dissolved in 0.3% hydroxy propylcellulose (HPC) were added at various concentrations and then reincubated overnight. The measure of antibiotic activity was determined by the amount of bacterial growth inhibition as shown by measurement of the optical density at 660 nm.

W3100 (E. coli) = test: as above; format: cell-based
Procedure: as §1

Pseudomonas Sp. = test: as above; format: cell-based
Procedure: as §1

[4] = approximate LD10 dose (M-TAG 250 mg/kg; mitomycin C 4 mg/kg), day one

In the case of `CO[C@@]12[C@H](COC(N)=O)C3=C(C(=O)C(C)=C(N)C3=O)N1C[C@H]1[C@@H]2N1C(=S)N[C@@H]1O[C@H](COC(C)=O)[C@@H](OC(C)=O)[C@H](OC(C)=O)[C@H]1NC(C)=O` [M-TAG, 1a(N-2-acetamido-3,4,6-tri-O-acetyl-2-deoxy-D-glucopyranosylthiocarbamoyl)-mitomycin C], the “antitumor activity against murine Ehrlich ascites (in words)” value (Ehrlich ascites; mouse, in vivo) is reported as “significant antitumor activity”, the “% ILS” value (Ehrlich ascites; single approximate LD10 dose i.p. (M-TAG 250 mg/kg; mitomycin C 4 mg/kg), one day after implantation) is reported as 66% and the “Mean Survival” value (Ehrlich ascites; single approximate LD10 dose i.p., 250 mg/kg) is reported as 22.8 days. For the same molecule, the “overall survivals, M-TAG versus mitomycin C at LD10 dose (in words)” value (P388 leukemia; LD10 dose) was “no statistical difference in the overall survivals”, the “% ILS” value (P388 leukemia; [4]) was 85% and the “Mean Survival” value (P388 leukemia; [4]) was 22 days. For the same molecule, the “antitumor activity against murine P388 leukemia (in words)” value (P388 leukemia; mouse, in vivo) was “equivalent to that achieved with the parent mitomycin C”, the “Deaths due to drug toxicity” value ([1]; 250 mg/kg, single i.p. dose) was 0/10 and the “Deaths due to drug toxicity” value ([1]; 275 mg/kg, single i.p. dose) was 1/10. For the same molecule, the “Deaths due to drug toxicity” value ([1]; 300 mg/kg, single i.p. dose) was 3/10, the “difference in LD10 dose in mice relative to mitomycin C” value ([1]; molar basis) was 30-40 fold and the “approximate LD10 dose (molar)” value ([1]; single i.p. dose) was about 346 µmol/kg. The LD10 dose ([1]; single i.p. dose toxic to 10% of normal mice) was 275 mg/kg and 250 to 275 mg/kg and ~250 mg/kg, the activity at 1.5 h, 100 µM [2] was 66% and the activity at 1.5 h, 500 µM [2] was 43%. The activity at 1.5 h, 1000 µM [2] was under 20%, the “bone marrow toxicity compared to parent mitomycin-C (in words)” value (human bone marrow cells) was “reduced bone marrow toxicity” and the “WBC depression / myelotoxicity (in words)” value [3] was “no significant depression in WBC counts at all days tested; also recorded: no significant myelotoxicity as measured by WBC depression”. The “mice alive on day 20” value (B16 melanoma; M-TAG 250 mg/kg or mitomycin C 4 mg/kg, i.p. day 1) was 6 out of 10, the “mice alive on day 10” value (B16 melanoma; M-TAG 250 mg/kg or mitomycin C 4 mg/kg, i.p. day 1, all vehicle-control mice died) was “All” and the “antitumor activity against murine B16 melanoma (in words)” value (B16 melanoma; mouse, in vivo) was “significant antitumor activity”. The “optical density at 660 nm (figure in parentheses)” value (from here on “optical density at 660 nm”) (Klebsiella Pneumonia; 0.04 mcg/ml) was 0.66, the “optical density at 660 nm” value (Klebsiella Pneumonia; 0.4 mcg/ml) was 0.62 and the “optical density at 660 nm” value (Klebsiella Pneumonia; 4.0 mcg/ml) was 0.59. The “optical density at 660 nm” value (Klebsiella Pneumonia; 40 mcg/ml) was 0.40, the “optical density at 660 nm” value (Klebsiella Pneumonia; 400 mcg/ml) was 0.04 and the inhibition at 0.04 µg/mL (Klebsiella Pneumonia; Klebsiella pneumoniae, 0.04 mcg/ml, 37° C. overnight, read-out: amount of bacterial growth inhibition (first figure)) was 22%. It also gave an inhibition at 0.4 µg/mL (Klebsiella Pneumonia; Klebsiella pneumoniae, 0.4 mcg/ml, 37° C. overnight, read-out: amount of bacterial growth inhibition (first figure)) of 24%, an inhibition at 4 µg/mL (Klebsiella Pneumonia; Klebsiella pneumoniae, 4.0 mcg/ml, 37° C. overnight, read-out: amount of bacterial growth inhibition (first figure)) of 26% and an inhibition at 40 µg/mL (Klebsiella Pneumonia; Klebsiella pneumoniae, 40 mcg/ml, 37° C. overnight, read-out: amount of bacterial growth inhibition (first figure)) of 40%. The inhibition at 400 µg/mL (Klebsiella Pneumonia; Klebsiella pneumoniae, 400 mcg/ml, 37° C. overnight, read-out: amount of bacterial growth inhibition (first figure)) was 92%, the “optical density at 660 nm” value (W3100 (E. coli); 0.04 mcg/ml) was 0.48 and the “optical density at 660 nm” value (W3100 (E. coli); 0.4 mcg/ml) was 0.51. For the same molecule, the “optical density at 660 nm” value (W3100 (E. coli); 4.0 mcg/ml) was 0.30, the “optical density at 660 nm” value (W3100 (E. coli); 40 mcg/ml) was 0.07 and the “optical density at 660 nm” value (W3100 (E. coli); 400 mcg/ml) was 0.04. For the same molecule, the inhibition at 0.04 µg/mL (W3100 (E. coli); Escherichia coli, 0.04 mcg/ml, 37° C. overnight, read-out: amount of bacterial growth inhibition (first figure)) was 33%, the inhibition at 0.4 µg/mL (W3100 (E. coli); Escherichia coli, 0.4 mcg/ml, 37° C. overnight, read-out: amount of bacterial growth inhibition (first figure)) was 31% and the inhibition at 4 µg/mL (W3100 (E. coli); Escherichia coli, 4.0 mcg/ml, 37° C. overnight, read-out: amount of bacterial growth inhibition (first figure)) was 50%. For the same molecule, the inhibition at 40 µg/mL (W3100 (E. coli); Escherichia coli, 40 mcg/ml, 37° C. overnight, read-out: amount of bacterial growth inhibition (first figure)) was 86%, the inhibition at 400 µg/mL (W3100 (E. coli); Escherichia coli, 400 mcg/ml, 37° C. overnight, read-out: amount of bacterial growth inhibition (first figure)) was 92% and the “optical density at 660 nm” value (Pseudomonas Sp.; 0.04 mcg/ml) was 0.52. For the same molecule, the “optical density at 660 nm” value (Pseudomonas Sp.; 0.4 mcg/ml) was 0.35, the “optical density at 660 nm” value (Pseudomonas Sp.; 4.0 mcg/ml) was 0.13 and the “optical density at 660 nm” value (Pseudomonas Sp.; 40 mcg/ml) was 0.11. For the same molecule, the “optical density at 660 nm” value (Pseudomonas Sp.; 400 mcg/ml) was 0.11, the inhibition at 0.04 µg/mL (Pseudomonas Sp.; Pseudomonas, 0.04 mcg/ml, 37° C. overnight, read-out: amount of bacterial growth inhibition (first figure)) was 30% and the inhibition at 0.4 µg/mL (Pseudomonas Sp.; Pseudomonas, 0.4 mcg/ml, 37° C. overnight, read-out: amount of bacterial growth inhibition (first figure)) was 45%. For the same molecule, the inhibition at 4 µg/mL (Pseudomonas Sp.; Pseudomonas, 4.0 mcg/ml, 37° C. overnight, read-out: amount of bacterial growth inhibition (first figure)) was 75%, the inhibition at 40 µg/mL (Pseudomonas Sp.; Pseudomonas, 40 mcg/ml, 37° C. overnight, read-out: amount of bacterial growth inhibition (first figure)) was 75% and the inhibition at 400 µg/mL (Pseudomonas Sp.; Pseudomonas, 400 mcg/ml, 37° C. overnight, read-out: amount of bacterial growth inhibition (first figure)) was 78%.
